Assay results published in patent US11540518B2, “Fungicidal oxadiazoles” (FMC Corporation, priority 2017, dated 2023).

Assays:
Type in all cases: in vivo
Zymoseptoria tritici = experiment: Test B: wheat leaf blotch control on wheat seedlings; settings: 250 ppm (incl. values marked * = tested at 250 ppm), sprayed to run-off on wheat seedlings, inoculated the following day; 100 = 100% disease control, 0 = no control
Description: General protocol for preparing test suspensions for Tests A-C: the test compounds were first dissolved in acetone in an amount equal to 3% of the final volume and then suspended at the desired concentration (in ppm) in acetone and purified water (50/50 mix by volume) containing 250 ppm of the surfactant PEG400 (polyhydric alcohol esters). The resulting test suspensions were then used in Tests A-C. The test solution was sprayed to the point of run-off on wheat seedlings. The following day the seedlings were inoculated with a spore suspension of Zymoseptoria tritici (the causal agent of wheat leaf blotch) and incubated in a saturated atmosphere at 24° C. for 48 h, and then moved to a growth chamber at 20° C. for 17 days, after which time disease ratings were made. Results for Tests A-C are given in Table A. In the Table, a rating of 100 indicates 100% disease control and a rating of 0 indicates no disease control (relative to the controls). A dash (-) indicates the compound was not tested.

[1] = system: Puccinia recondita f. sp. tritici; experiment: Test C: wheat leaf rust control on wheat seedlings; settings: sprayed to run-off on wheat seedlings, inoculated the following day, 100 = 100% disease control, 0 = no control; for pest or weed control at 250 ppm: Puccinia recondita, 168 h, read-out: Test C disease control rating
Method in brief: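 Wheat seedlings were sprayed to run-off with compound suspension (ppm, acetone/water with 250 ppm PEG400), then inoculated with Puccinia recondita f. sp. tritici spores the next day. Plants were held 24 h in saturated atmosphere at 20 °C, then 6 days in a 20 °C growth chamber. Disease control is rated 0-100% relative to untreated controls.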

Phakopsora pachyrhizi = experiment: Test A: Asian soybean rust control on soybean seedlings; settings: sprayed to run-off on soybean seedlings, inoculated the following day, 100 = 100% disease control, 0 = no control; for pest or weed control at 250 ppm: Phakopsora pachyrhizi, 216 h, read-out: Test A disease control rating
Method in brief: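 Compounds in acetone/water (50/50) with 250 ppm PEG400 were sprayed to run-off on soybean seedlings, which were inoculated with P. pachyrhizi spores the next day. Plants were held in saturated atmosphere at 22° C for 24 h, then 8 days at 22° C, before visual rating (0–100% disease control vs controls).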

## NC(=O)OCc1ccc(-c2noc(C(F)(F)F)n2)cc1Cl [Compound 86]
Zymoseptoria tritici
  Test B disease control rating: 94%
[1]; 250 ppm
  Test C disease control rating: 100%
Phakopsora pachyrhizi; 250 ppm
  Test A disease control rating: 100%

## CC(C)(OC(N)=O)c1ccc(-c2noc(C(F)(F)F)n2)cc1 [Compound 87]
Zymoseptoria tritici
  Test B disease control rating: 99%
[1]; 250 ppm
  Test C disease control rating: 100%
Phakopsora pachyrhizi; 250 ppm
  Test A disease control rating: 100%

## NC(=O)OCc1cccc(-c2noc(C(F)(F)F)n2)c1 [Compound 93]
Zymoseptoria tritici
  Test B disease control rating: 97%
[1]; 250 ppm
  Test C disease control rating: 100%
Phakopsora pachyrhizi; 250 ppm
  Test A disease control rating: 100%

## CNC(=O)OCc1cccc(-c2noc(C(F)(F)F)n2)c1 [Compound 94]
Zymoseptoria tritici
  Test B disease control rating: 1%
[1]; 250 ppm
  Test C disease control rating: 100%
Phakopsora pachyrhizi; 250 ppm
  Test A disease control rating: 69%

## CCNC(=O)OCc1cccc(-c2noc(C(F)(F)F)n2)c1 [Compound 95]
Zymoseptoria tritici
  Test B disease control rating: 3%
[1]; 250 ppm
  Test C disease control rating: 100%
Phakopsora pachyrhizi; 250 ppm
  Test A disease control rating: 99%

## C#CCNC(=O)OCc1cccc(-c2noc(C(F)(F)F)n2)c1 [Compound 96]
Zymoseptoria tritici
  Test B disease control rating: 64%
[1]; 250 ppm
  Test C disease control rating: 100%
Phakopsora pachyrhizi; 250 ppm
  Test A disease control rating: 100%

## C=CCNC(=O)OCc1cccc(-c2noc(C(F)(F)F)n2)c1 [Compound 97]
Zymoseptoria tritici
  Test B disease control rating: 52%
[1]; 250 ppm
  Test C disease control rating: 100%
Phakopsora pachyrhizi; 250 ppm
  Test A disease control rating: 100%

## C=C(C)CNC(=O)OCc1cccc(-c2noc(C(F)(F)F)n2)c1 [Compound 98]
Zymoseptoria tritici
  Test B disease control rating: 3%
[1]; 250 ppm
  Test C disease control rating: 100%
Phakopsora pachyrhizi; 250 ppm
  Test A disease control rating: 100%

## CN(C)C(=O)OCc1cccc(-c2noc(C(F)(F)F)n2)c1 [Compound 99]
Zymoseptoria tritici
  Test B disease control rating: 0%
[1]; 250 ppm
  Test C disease control rating: 55%
Phakopsora pachyrhizi; 250 ppm
  Test A disease control rating: 0%

## Cc1ccc(C(OC(=O)n2ccnc2)c2ccc(-c3noc(C(F)(F)F)n3)cc2)cc1 (stereo not drawn) [Compound 100]
Zymoseptoria tritici
  Test B disease control rating: 98%
[1]; 250 ppm
  Test C disease control rating: 97%
Phakopsora pachyrhizi; 250 ppm
  Test A disease control rating: 100%

## NC(=O)OC(c1ccc(-c2noc(C(F)(F)F)n2)cc1)c1cccc(Cl)c1 (stereo not drawn) [Compound 101]
Zymoseptoria tritici
  Test B disease control rating: 90%
[1]; 250 ppm
  Test C disease control rating: 99%
Phakopsora pachyrhizi; 250 ppm
  Test A disease control rating: 100%

## CNC(=O)OC(c1ccc(-c2noc(C(F)(F)F)n2)cc1)c1cccc(Cl)c1 (stereo not drawn) [Compound 102]
Zymoseptoria tritici
  Test B disease control rating: 96%
[1]; 250 ppm
  Test C disease control rating: 90%
Phakopsora pachyrhizi; 250 ppm
  Test A disease control rating: 100%

## CCNC(=O)OC(c1ccc(-c2noc(C(F)(F)F)n2)cc1)c1cccc(Cl)c1 (stereo not drawn) [Compound 103]
Zymoseptoria tritici
  Test B disease control rating: 20%
[1]; 250 ppm
  Test C disease control rating: 86%
Phakopsora pachyrhizi; 250 ppm
  Test A disease control rating: 100%

## C#CCNC(=O)OC(c1ccc(-c2noc(C(F)(F)F)n2)cc1)c1cccc(Cl)c1 (stereo not drawn) [Compound 104]
Zymoseptoria tritici
  Test B disease control rating: 84%
[1]; 250 ppm
  Test C disease control rating: 80%
Phakopsora pachyrhizi; 250 ppm
  Test A disease control rating: 100%

## COC(=O)NN=Cc1ccc(-c2noc(C(F)(F)F)n2)cc1 [Compound 105, methyl 2-[[4-[5-(trifluoromethyl)-1,2,4-oxadiazol-3-yl]phenyl]methylene]-hydrazinecarboxylate]
Zymoseptoria tritici
  Test B disease control rating: 99%
[1]; 250 ppm
  pest or weed control at 250 ppm: 100%
Phakopsora pachyrhizi; 250 ppm
  pest or weed control at 250 ppm: 100%

## NC(=O)OC(c1ccc(F)cc1)c1ccc(-c2noc(C(F)(F)F)n2)cc1 (stereo not drawn) [Compound 112]
Zymoseptoria tritici
  Test B disease control rating: 85%
[1]; 250 ppm
  Test C disease control rating: 100%
Phakopsora pachyrhizi; 250 ppm
  Test A disease control rating: 100%

## CNC(=O)OC(c1ccc(F)cc1)c1ccc(-c2noc(C(F)(F)F)n2)cc1 (stereo not drawn) [Compound 113]
Zymoseptoria tritici
  Test B disease control rating: 82%
[1]; 250 ppm
  Test C disease control rating: 100%
Phakopsora pachyrhizi; 250 ppm
  Test A disease control rating: 100%

## CCNC(=O)OC(c1ccc(F)cc1)c1ccc(-c2noc(C(F)(F)F)n2)cc1 (stereo not drawn) [Compound 114]
Zymoseptoria tritici
  Test B disease control rating: 9%
[1]; 250 ppm
  Test C disease control rating: 100%
Phakopsora pachyrhizi; 250 ppm
  Test A disease control rating: 100%

## O=C(OCc1cccc(-c2noc(C(F)(F)F)n2)c1)n1ccnc1 [Compound 123]
Zymoseptoria tritici
  Test B disease control rating: 0%
[1]; 250 ppm
  pest or weed control at 250 ppm: 96%
Phakopsora pachyrhizi; 250 ppm
  pest or weed control at 250 ppm: 100%

## CCOC(=O)NN=Cc1ccc(-c2noc(C(F)(F)F)n2)s1 [Compound 124]
Zymoseptoria tritici
  Test B disease control rating: 73* %
[1]; 50 ppm
  Test C disease control rating: 100%
Phakopsora pachyrhizi; 50 ppm
  Test A disease control rating: 100%

## O=C(OC(c1ccc(-c2noc(C(F)(F)F)n2)cc1)c1cccc(F)c1)n1ccnc1 (stereo not drawn) [Compound 125]
Zymoseptoria tritici
  Test B disease control rating: 97%
[1]; 250 ppm
  Test C disease control rating: 100%
Phakopsora pachyrhizi; 250 ppm
  Test A disease control rating: 100%

## O=C(OC(c1ccc(-c2noc(C(F)(F)F)n2)cc1)c1cccc(Cl)c1)n1ccnc1 (stereo not drawn) [Compound 126]
Zymoseptoria tritici
  Test B disease control rating: 88* %
[1]; 10 ppm
  Test C disease control rating: 0%
Phakopsora pachyrhizi; 10 ppm
  Test A disease control rating: 99%

## O=C(OC(c1ccc(F)cc1)c1ccc(-c2noc(C(F)(F)F)n2)cc1)n1ccnc1 (stereo not drawn) [Compound 127]
Zymoseptoria tritici
  Test B disease control rating: 99%
[1]; 250 ppm
  Test C disease control rating: 100%
Phakopsora pachyrhizi; 250 ppm
  Test A disease control rating: 100%

## Cc1ccccc1C(OC(N)=O)c1ccc(-c2noc(C(F)(F)F)n2)cc1 (stereo not drawn) [Compound 128]
Zymoseptoria tritici
  Test B disease control rating: 88%
[1]; 250 ppm
  Test C disease control rating: 100%
Phakopsora pachyrhizi; 250 ppm
  Test A disease control rating: 100%

## CNC(=O)OC(c1ccc(-c2noc(C(F)(F)F)n2)cc1)c1ccccc1C (stereo not drawn) [Compound 129]
Zymoseptoria tritici
  Test B disease control rating: 74%
[1]; 250 ppm
  Test C disease control rating: 100%
Phakopsora pachyrhizi; 250 ppm
  Test A disease control rating: 100%

## NC(=O)OC(c1ccc(-c2noc(C(F)(F)F)n2)cc1)c1cccc(F)c1 (stereo not drawn) [Compound 131]
Zymoseptoria tritici
  Test B disease control rating: 96%
[1]; 250 ppm
  Test C disease control rating: 100%
Phakopsora pachyrhizi; 250 ppm
  Test A disease control rating: 100%

## CNC(=O)OC(c1ccc(-c2noc(C(F)(F)F)n2)cc1)c1cccc(F)c1 (stereo not drawn) [Compound 132]
Zymoseptoria tritici
  Test B disease control rating: 95%
[1]; 250 ppm
  Test C disease control rating: 100%
Phakopsora pachyrhizi; 250 ppm
  Test A disease control rating: 100%

## CCNC(=O)OC(c1ccc(-c2noc(C(F)(F)F)n2)cc1)c1cccc(F)c1 (stereo not drawn) [Compound 133]
Zymoseptoria tritici
  Test B disease control rating: 99%
[1]; 250 ppm
  Test C disease control rating: 100%
Phakopsora pachyrhizi; 250 ppm
  Test A disease control rating: 100%

## CN(C)C(=O)OC(c1ccc(-c2noc(C(F)(F)F)n2)cc1)c1cccc(F)c1 (stereo not drawn) [Compound 134]
Zymoseptoria tritici
  Test B disease control rating: 50%
[1]; 250 ppm
  Test C disease control rating: 89%
Phakopsora pachyrhizi; 250 ppm
  Test A disease control rating: 100%

## C#CCNC(=O)OC(c1ccc(-c2noc(C(F)(F)F)n2)cc1)c1cccc(F)c1 (stereo not drawn) [Compound 135]
Zymoseptoria tritici
  Test B disease control rating: 88%
[1]; 250 ppm
  Test C disease control rating: 100%
Phakopsora pachyrhizi; 250 ppm
  Test A disease control rating: 100%

## CNC(=O)OC(c1ccccc1)c1ccc(-c2noc(C(F)(F)F)n2)cc1 (stereo not drawn) [Compound 137]
Zymoseptoria tritici
  Test B disease control rating: 70%
[1]; 250 ppm
  Test C disease control rating: 100%
Phakopsora pachyrhizi; 250 ppm
  Test A disease control rating: 100%

## C=CCNC(=O)OC(c1ccccc1)c1ccc(-c2noc(C(F)(F)F)n2)cc1 (stereo not drawn) [Compound 138]
Zymoseptoria tritici
  Test B disease control rating: 99%
[1]; 250 ppm
  Test C disease control rating: 100%
Phakopsora pachyrhizi; 250 ppm
  Test A disease control rating: 100%

## CCCNC(=O)OC(c1ccccc1)c1ccc(-c2noc(C(F)(F)F)n2)cc1 (stereo not drawn) [Compound 139]
Zymoseptoria tritici
  Test B disease control rating: 56%
[1]; 250 ppm
  Test C disease control rating: 100%
Phakopsora pachyrhizi; 250 ppm
  Test A disease control rating: 100%

## CC(C)CNC(=O)OC(c1ccccc1)c1ccc(-c2noc(C(F)(F)F)n2)cc1 (stereo not drawn) [Compound 140]
Zymoseptoria tritici
  Test B disease control rating: 34%
[1]; 250 ppm
  Test C disease control rating: 86%
Phakopsora pachyrhizi; 250 ppm
  Test A disease control rating: 100%

## COC(=O)NN=Cc1ccc(-c2noc(C(F)(F)F)n2)s1 [Compound 141]
Zymoseptoria tritici
  Test B disease control rating: 93* %
[1]; 50 ppm
  Test C disease control rating: 100%
Phakopsora pachyrhizi; 50 ppm
  Test A disease control rating: 100%
